Broadly, the inhibition is the change of the read-out against control, counted positive when it falls.

Experimental findings from US6201025A, “N-aralkylaminotetralins as ligands for the neuropeptide Y Y5 receptor” (Ortho-McNeil Pharmaceutical, Inc., priority 1999, dated 2001) are described below.

The assay deals with T1, human neuropeptide Y5 receptor (Homo sapiens, UniProt Q15761).
T1 construct: expressed in transfected cells; cell membranes
T1 sequence (Q15761 1-445): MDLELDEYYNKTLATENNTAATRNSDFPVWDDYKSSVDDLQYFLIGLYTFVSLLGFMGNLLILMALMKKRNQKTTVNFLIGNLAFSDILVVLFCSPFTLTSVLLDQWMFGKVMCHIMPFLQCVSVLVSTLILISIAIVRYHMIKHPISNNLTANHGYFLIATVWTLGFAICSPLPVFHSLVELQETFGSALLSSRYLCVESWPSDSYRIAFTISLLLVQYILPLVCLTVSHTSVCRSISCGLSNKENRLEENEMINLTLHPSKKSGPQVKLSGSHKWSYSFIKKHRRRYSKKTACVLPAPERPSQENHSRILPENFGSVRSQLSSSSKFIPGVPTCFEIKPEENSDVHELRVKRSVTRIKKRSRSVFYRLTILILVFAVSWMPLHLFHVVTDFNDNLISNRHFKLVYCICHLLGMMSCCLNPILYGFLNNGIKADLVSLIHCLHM
The assay is described as follows: NPY5 HTS Centrifugation Assay: competition of 125I-PYY binding to membranes of NPY5-transfected HEK293 cells. As to conditions: for inhibition at 3 µM: read-out: % Inhibition of 125I-PYY Binding @ 3 uM; for inhibition at 30 µM: read-out: % Inhibition of 125I-PYY Binding @ 30 uM. On the procedure:
The compounds described in this invention were evaluated for binding to the human neuropeptide Y5 receptor.
Stably transfected cells served as the source for the membranes for the NPY5 receptor binding assay.
NPY5-transfected HEK293 cells were grown to confluence in 150 cm^2 culture dishes. […] Cells were then incubated in phosphate-buffered saline without Calcium and without Magnesium, supplemented with 2 mM EDTA. Cells were incubated for 10 minutes at room temperature and the cells were collected by repetitive pipeting. Cells were formed into pellets and then frozen at -80° C. until needed. Frozen pellets were homogenized with a polytron at full speed for 12 seconds in a homogenization buffer (20 mM Tris HCl, 5 mM EDTA, pH 7.4). Homogenates were centrifuged for 5 minutes at 4° C. at 200 g. Supernatants were transferred to corex tubes and centrifuged for 25 minutes at 28,000 g. Pellets were re-suspended in Binding (20 mM HEPES, 10 mM NaCl, 0.22 mM KH2 PO4, 1.3 mM CaCl2, 0.8 mM MgSO4, pH 7.4). Membranes were kept on ice until use.
Compounds to be tested were prepared as 10x stocks in binding buffer and added first to assay tubes (RIA vials, Sarstedt). […] To each tube is added 100 μL of membranes and the mixture is agitated by pipeting 2 times. Samples are incubated for 1 hr at room temperature. Aluminum cast plates (Sarstedt) containing the vials are then centrifuged 10 minutes at 3200 rpm in a Sorvall RT6000. Supernatant is then aspirated. To each vial 400 μL PBS is added and this is then aspirated again. Vials are then put in carrier polypropylene 12×75 tube and counted in gamma counter (Packard). Non-specific binding is determined in the presence of 300 nM NPY.

Setting [1] is: 3 uM, 80 pM 125I-PYY, human NPY Y5 receptor, 1 hr room temperature.
Where [2] appears, read: 30 uM, 80 pM 125I-PYY, human NPY Y5 receptor, 1 hr room temperature.

Structures can show the parent of a compound that is named as a salt. Where two headings read alike, the source gives them in different places.

For the molecule `COc1ccc2c(c1)CC[C@H](NCCc1ccc(OC)c(OC)c1)[C@@H]2Cc1ccccc1` (racemic) [Compound 6, rac-cis-1-(Phenylmethyl)-6-methoxy-N-(2-(3,4-dimethoxyphenyl)ethyl)-1,2,3,4-tetrahydro-2-naphthalenamine], the inhibition at 3 µM under setting [1] turned out to be 86%. The inhibition at 30 µM under setting [2] worked out at 101%.
For `Fc1ccc(CN[C@H]2CCc3ccccc3[C@H]2Cc2ccccc2)cc1` (racemic) [Compound 9, rac-cis-1-(Phenylmethyl)-N-(4-fluorophenylmethyl)-1,2,3,4-tetrahydro-2-naphthalenamine monohydrobromide], under setting [1], the inhibition at 3 µM was determined as 20%. Besides, the inhibition at 30 µM under setting [2] turned out to be 97%.
For `COc1ccccc1CN[C@H]1CCc2ccccc2[C@H]1Cc1ccccc1` (racemic) [Compound 11, rac-cis-1-(Phenylmethyl)-N-(2-methoxyphenylmethyl)-1,2,3,4-tetrahydro-2-naphthalenamine] the same measures were 21% and 96%.
For `COc1ccccc1CN[C@H]1CCc2ccccc2[C@H]1Cc1ccc(F)cc1` (racemic) [Compound 12, rac-cis-1-(4-Fluorophenylmethyl)-N-(2-methoxyphenylmethyl)-1,2,3,4-tetrahydro-2-naphthalenamine monohydrobromide], the inhibition at 3 µM under setting [1] amounted to 16%. Further, the inhibition at 30 µM under setting [2] amounted to 98%.
As to `COc1ccccc1CN[C@@H]1CCc2ccccc2[C@H]1Cc1ccc(F)cc1` (racemic) [Compound 13, rac-trans-1-(4-Fluorophenylmethyl)-N-(2-methoxyphenylmethyl)-1,2,3,4-tetrahydro-2-naphthalenamine monooxalate], the inhibition at 3 µM was 16% and the inhibition at 30 µM came out at 89%.
Consider `COc1ccc2c(c1)[C@@H](Cc1ccccc1)[C@@H](NCc1ccccc1OC)CC2` (racemic) [Compound 15, rac-cis-1-(Phenylmethyl)-7-methoxy-N-(2-methoxyphenylmethyl)-1,2,3,4-tetrahydro-2-naphthalenamine monohydrobromide], for which the inhibition at 3 µM under setting [1] was 31%.
Consider `Fc1ccc(C[C@@H]2c3ccccc3CC[C@H]2NCCc2c[nH]c3ccccc23)cc1` (racemic) [Compound 16, rac-trans-1-(4-Fluorophenylmethyl)-N-(2-(3-indolyl)ethyl)-1,2,3,4-tetrahydro-2-naphthalenamine monooxalate], for which the inhibition at 3 µM stood at 48% and the inhibition at 30 µM turned out to be 101%.
On to `COc1ccc2c(c1)[C@@H](Cc1ccccc1)[C@H](NCCc1c[nH]c3ccccc13)CC2` (racemic) [Compound 19, rac-trans-1-(Phenylmethyl)-7-methoxy-N-(2(3-indolyl)ethyl)-1,2,3,4-tetrahydro-2-naphthalenamine monooxalate], for which the inhibition at 3 µM amounted to 49%.
For the molecule `c1ccc2c(c1)CC[C@@H](NCCc1c[nH]c3ccccc13)[C@@H]2Cc1ccc2ccccc2c1` (racemic) [Compound 21, rac-trans-1-(2-Naphthylmethyl)-N-(2-(3-indolyl)ethyl)-1,2,3,4-tetrahydro-2-naphthalenamine monooxalate], the inhibition at 3 µM turned out to be 33% and the inhibition at 30 µM was 103%.
Consider `COc1ccccc1CN[C@H]1CCc2ccccc2[C@H]1Cc1ccc2ccccc2c1` (racemic) [Compound 22, rac-cis-1-(2-Naphthylmethyl)-N-(2-methoxyphenylmethyl)-1,2,3,4-tetrahydro-2-naphthalenamine monohydrobromide], for which, under setting [1], the inhibition at 3 µM was determined as 15%. Moreover, under setting [2], the inhibition at 30 µM is 96%.
With `Fc1ccc(C[C@@H]2c3ccccc3CC[C@@H]2NCCCc2ccccc2)cc1` (racemic) [Compound 24, rac-cis-1-(4-Fluorophenylmethyl)-N-(3-phenylpropyl)-1,2,3,4-tetrahydro-2-naphthalenamine monohydrobromide], the inhibition at 3 µM under setting [1] stood at 19%. Further, under setting [2], the inhibition at 30 µM was found to be 102%.
For `c1ccc(C[C@H]2c3ccccc3CC[C@H]2NCCc2c[nH]c3ccccc23)cc1` (relative stereo) [Compound 8], the inhibition at 3 µM under setting [1] turned out to be 73%. Further, the inhibition at 30 µM under setting [2] came out at 105%.
As for `Fc1ccc(CCN[C@@H]2CCc3ccccc3[C@@H]2Cc2ccccc2)cc1` (relative stereo) [Compound 14, monohydrobromide], the inhibition at 3 µM under setting [1] came to 13%. The inhibition at 30 µM under setting [2] came to 98%.
Regarding `COc1ccccc1C(=O)N[C@@H]1CCc2ccccc2[C@@H]1Cc1ccccc1` (relative stereo) [Compound 17, rac-cis-1-(Phenylmethyl)-N-(2-methoxyphenyl-2-oxomethyl)-1,2,3,4-tetrahydro-2-naphthalenamine monohydrobromide], under setting [1], the inhibition at 3 µM is 65%. In addition, the inhibition at 30 µM under setting [2] amounted to 98%.
On to `COc1ccc2c(c1)[C@H](Cc1ccccc1)[C@H](NCCc1c[nH]c3ccccc13)CC2` (relative stereo) [Compound 18, rac-cis-1-(Phenylmethyl)-7-methoxy-N-(2-(3-indolyl)ethyl)-1,2,3,4-tetrahydro-2-naphthalenamine 0.8 fumarate 0.8 methanol 0.2 hydrate], for which the inhibition at 3 µM under setting [1] was 61%. Further, the inhibition at 30 µM under setting [2] was 104%.
In the case of `c1ccc2c(c1)CC[C@@H](NCCc1c[nH]c3ccccc13)[C@H]2Cc1ccc2ccccc2c1` (relative stereo) [Compound 20, rac-cis-1-(2-Naphthylmethyl)-N-(2-(3-indolyl)ethyl)-1,2,3,4-tetrahydro-2-naphthalenamine hemifumarate methanol], the inhibition at 3 µM under setting [1] worked out at 27%. The inhibition at 30 µM under setting [2] was 99%.
For `COc1ccccc1CC(=O)N[C@@H]1CCc2ccccc2[C@@H]1Cc1ccccc1` (relative stereo) [Compound 23] the same measures were 12% and 47%.
Consider `COc1ccc(CCN[C@H]2CCc3ccccc3[C@H]2Cc2cccnc2)cc1OC` (relative stereo) [Compound 28, rac-cis-1-(3-pyridylmethyl)-N-(2-(3,4-dimethoxyphenyl)ethyl-1,2,3,4-tetrahydro-2-naphthalenaminemonohydrobromide], for which, under setting [1], the inhibition at 3 µM came to 11%. Besides, the inhibition at 30 µM under setting [2] is 66%.
In the same order, the values of `COc1ccc2c(c1)CC[C@@H](NCCc1ccccc1)[C@H]2Cc1ccccc1` (relative stereo) [Compound 29] are 33% and 95%.
For `COc1ccc(CCN[C@@H]2CCc3cc(OC)ccc3[C@@H]2Cc2ccccc2)cc1` (relative stereo) [Compound 30] the same measures were 62% and 99%.
For `COc1ccc2c(c1)CC[C@@H](NCCc1ccc(Cl)c(Cl)c1)[C@H]2Cc1ccccc1` (relative stereo) [Compound 31] the same measures were 31% and 93%.
For the molecule `COc1cccc(C[C@H]2c3ccc(OC)cc3CC[C@H]2NCCc2ccc(OC)c(OC)c2)c1` (relative stereo) [Compound 32], under setting [1], the inhibition at 3 µM turned out to be 44%. Also, under setting [2], the inhibition at 30 µM is 97%.
In the case of `COc1ccc2c(c1)CC[C@@H](NCCc1ccc(OC)c(OC)c1)[C@H]2Cc1cccc2ccccc12` (relative stereo) [Compound 33], the inhibition at 3 µM under setting [1] worked out at 16%. Further, the inhibition at 30 µM under setting [2] was 73%.
